Laboratory results published in the NIST ThermoML archive (doi:10.1016/j.jct.2008.02.019).

Columns and labels:
[1] = xn = mol fraction of the nth substance listed; conditions: 101 kPa, Liquid
[2] = excess molar enthalpy (molar enthalpy of mixing); xn = mol fraction of the nth substance listed; conditions: 101 kPa, Liquid, Flow calorimetry
[3] = 318.15 K; 101.33 kPa; Liquid; Vibrating tube method
[4] = refractive index (Na D-line) (dimensionless); conditions: 101.33 kPa, Liquid, Standard Abbe refractometry

CCCC[n+]1ccc(C)cc1.F[B-](F)(F)F [1-butyl-4-methylpyridinium tetrafluoroborate] + CO
Conditions | excess molar enthalpy [kJ/mol] | mass density [kg/m3]
[1], 298.15 K, x1 = 0.0539 | – | 880.6
[1], 298.15 K, x1 = 0.0819 | – | 916.2
[1], 298.15 K, x1 = 0.095 | – | 931.5
[1], 298.15 K, x1 = 0.1078 | – | 944.4
[1], 298.15 K, x1 = 0.1549 | – | 984.7
[1], 298.15 K, x1 = 0.2038 | – | 1017.3
[1], 298.15 K, x1 = 0.3016 | – | 1064.3
[1], 298.15 K, x1 = 0.3729 | – | 1088.5
[1], 298.15 K, x1 = 0.4548 | – | 1110.8
[1], 298.15 K, x1 = 0.5027 | – | 1120.9
[1], 298.15 K, x1 = 0.5533 | – | 1131.2
[1], 298.15 K, x1 = 0.6076 | – | 1140.4
[1], 298.15 K, x1 = 0.7174 | – | 1155.8
[1], 298.15 K, x1 = 0.8053 | – | 1165.6
[1], 298.15 K, x1 = 0.9129 | – | 1176
[1], 318.15 K, x1 = 0.0489 | – | 855.9
[1], 318.15 K, x1 = 0.096 | – | 915.9
[1], 318.15 K, x1 = 0.1439 | – | 961.3
[1], 318.15 K, x1 = 0.1894 | – | 994.2
[1], 318.15 K, x1 = 0.3003 | – | 1049.4
[1], 318.15 K, x1 = 0.3551 | – | 1068.5
[1], 318.15 K, x1 = 0.4349 | – | 1091.7
[1], 318.15 K, x1 = 0.4888 | – | 1103.9
[1], 318.15 K, x1 = 0.5342 | – | 1112.7
[1], 318.15 K, x1 = 0.5959 | – | 1123.9
[1], 318.15 K, x1 = 0.6592 | – | 1133.5
[1], 318.15 K, x1 = 0.7266 | – | 1142.3
[1], 318.15 K, x1 = 0.8378 | – | 1154.8
[1], 318.15 K, x1 = 0.9046 | – | 1161.4
[2], 298.15 K, x1 = 0.0155 | 0.254 | –
[2], 298.15 K, x1 = 0.0359 | 0.485 | –
[2], 298.15 K, x1 = 0.0582 | 0.667 | –
[2], 298.15 K, x1 = 0.0832 | 0.907 | –
[2], 298.15 K, x1 = 0.1111 | 1.13 | –
[2], 298.15 K, x1 = 0.1397 | 1.38 | –
[2], 298.15 K, x1 = 0.1698 | 1.58 | –
[2], 298.15 K, x1 = 0.1711 | 1.64 | –
[2], 298.15 K, x1 = 0.1953 | 1.74 | –
[2], 298.15 K, x1 = 0.2214 | 1.82 | –
[2], 298.15 K, x1 = 0.2412 | 1.9 | –
[2], 298.15 K, x1 = 0.2755 | 1.96 | –
[2], 298.15 K, x1 = 0.3109 | 2.01 | –
[2], 298.15 K, x1 = 0.3617 | 1.99 | –
[2], 298.15 K, x1 = 0.427 | 1.89 | –
[2], 298.15 K, x1 = 0.507 | 1.72 | –
[2], 298.15 K, x1 = 0.6029 | 1.46 | –
[2], 298.15 K, x1 = 0.7161 | 1.14 | –
[2], 298.15 K, x1 = 0.8469 | 0.646 | –
[2], 318.2 K, x1 = 0.0102 | 0.141 | –
[2], 318.21 K, x1 = 0.0238 | 0.277 | –
[2], 318.22 K, x1 = 0.0405 | 0.41 | –
[2], 318.23 K, x1 = 0.0635 | 0.744 | –
[2], 318.24 K, x1 = 0.0898 | 1.09 | –
[2], 318.25 K, x1 = 0.1174 | 1.41 | –
[2], 318.26 K, x1 = 0.1476 | 1.69 | –
[2], 318.27 K, x1 = 0.1778 | 1.91 | –
[2], 318.28 K, x1 = 0.1969 | 2.08 | –
[2], 318.29 K, x1 = 0.2103 | 2.21 | –
[2], 318.3 K, x1 = 0.2392 | 2.34 | –
[2], 318.31 K, x1 = 0.2699 | 2.42 | –
[2], 318.32 K, x1 = 0.3021 | 2.52 | –
[2], 318.33 K, x1 = 0.3442 | 2.55 | –
[2], 318.34 K, x1 = 0.3846 | 2.59 | –
[2], 318.35 K, x1 = 0.4397 | 2.57 | –
[2], 318.36 K, x1 = 0.4968 | 2.49 | –
[2], 318.37 K, x1 = 0.5563 | 2.38 | –
[2], 318.38 K, x1 = 0.6281 | 2.23 | –
[2], 318.39 K, x1 = 0.7109 | 1.95 | –
[2], 318.4 K, x1 = 0.8042 | 1.51 | –
[2], 318.41 K, x1 = 0.8793 | 0.998 | –
[2], 318.42 K, x1 = 0.9607 | 0.392 | –

CCCC[n+]1ccc(C)cc1.F[B-](F)(F)F [1-butyl-4-methylpyridinium tetrafluoroborate] + O
Conditions | excess molar enthalpy [kJ/mol] | mass density [kg/m3]
[1], 298.15 K, x1 = 0.0502 | – | 1060.5
[1], 298.15 K, x1 = 0.1042 | – | 1094.8
[1], 298.15 K, x1 = 0.1512 | – | 1112.7
[1], 298.15 K, x1 = 0.2006 | – | 1126.1
[1], 298.15 K, x1 = 0.2543 | – | 1136.1
[1], 298.15 K, x1 = 0.2948 | – | 1142.4
[1], 298.15 K, x1 = 0.4 | – | 1154.1
[1], 298.15 K, x1 = 0.4913 | – | 1161.5
[1], 298.15 K, x1 = 0.6014 | – | 1168.3
[1], 298.15 K, x1 = 0.7228 | – | 1173.9
[1], 298.15 K, x1 = 0.7493 | – | 1175.1
[1], 298.15 K, x1 = 0.783 | – | 1176.4
[1], 298.15 K, x1 = 0.8449 | – | 1178.7
[1], 298.15 K, x1 = 0.8731 | – | 1179.8
[1], 298.15 K, x1 = 0.9504 | – | 1182.1
[1], 318.15 K, x1 = 0.0327 | – | 1033
[1], 318.15 K, x1 = 0.0994 | – | 1080
[1], 318.15 K, x1 = 0.1505 | – | 1098.7
[1], 318.15 K, x1 = 0.1989 | – | 1111.3
[1], 318.15 K, x1 = 0.236 | – | 1118.6
[1], 318.15 K, x1 = 0.2921 | – | 1127.6
[1], 318.15 K, x1 = 0.3237 | – | 1131.9
[1], 318.15 K, x1 = 0.4169 | – | 1141.3
[1], 318.15 K, x1 = 0.4841 | – | 1146.6
[1], 318.15 K, x1 = 0.6083 | – | 1154.2
[1], 318.15 K, x1 = 0.6715 | – | 1157.5
[1], 318.15 K, x1 = 0.7125 | – | 1159.2
[1], 318.15 K, x1 = 0.7299 | – | 1160
[1], 318.15 K, x1 = 0.8124 | – | 1163
[1], 318.15 K, x1 = 0.8565 | – | 1164.7
[1], 318.15 K, x1 = 0.8888 | – | 1165.8
[2], 298.15 K, x1 = 0.0072 | 0.104 | –
[2], 298.15 K, x1 = 0.0145 | 0.198 | –
[2], 298.15 K, x1 = 0.0215 | 0.284 | –
[2], 298.15 K, x1 = 0.0303 | 0.38 | –
[2], 298.15 K, x1 = 0.0406 | 0.491 | –
[2], 298.15 K, x1 = 0.0526 | 0.613 | –
[2], 298.15 K, x1 = 0.0659 | 0.74 | –
[2], 298.15 K, x1 = 0.0805 | 0.876 | –
[2], 298.15 K, x1 = 0.0963 | 1.01 | –
[2], 298.15 K, x1 = 0.1144 | 1.16 | –
[2], 298.15 K, x1 = 0.1563 | 1.46 | –
[2], 298.15 K, x1 = 0.1863 | 1.59 | –
[2], 298.15 K, x1 = 0.2196 | 1.7 | –
[2], 298.15 K, x1 = 0.2577 | 1.77 | –
[2], 298.15 K, x1 = 0.2972 | 1.81 | –
[2], 298.15 K, x1 = 0.3449 | 1.81 | –
[2], 298.15 K, x1 = 0.3974 | 1.76 | –
[2], 298.15 K, x1 = 0.4857 | 1.59 | –
[2], 298.15 K, x1 = 0.5954 | 1.34 | –
[2], 298.15 K, x1 = 0.7282 | 0.962 | –
[2], 298.15 K, x1 = 0.8706 | 0.486 | –
[2], 318.15 K, x1 = 0.0097 | 0.188 | –
[2], 318.16 K, x1 = 0.0226 | 0.392 | –
[2], 318.17 K, x1 = 0.0382 | 0.606 | –
[2], 318.18 K, x1 = 0.0565 | 0.825 | –
[2], 318.19 K, x1 = 0.0755 | 1.04 | –
[2], 318.2 K, x1 = 0.0949 | 1.23 | –
[2], 318.21 K, x1 = 0.1132 | 1.4 | –
[2], 318.22 K, x1 = 0.1187 | 1.51 | –
[2], 318.23 K, x1 = 0.1414 | 1.68 | –
[2], 318.24 K, x1 = 0.1695 | 1.84 | –
[2], 318.25 K, x1 = 0.2008 | 1.97 | –
[2], 318.26 K, x1 = 0.2346 | 2.09 | –
[2], 318.27 K, x1 = 0.2746 | 2.19 | –
[2], 318.28 K, x1 = 0.3253 | 2.25 | –
[2], 318.29 K, x1 = 0.383 | 2.23 | –
[2], 318.3 K, x1 = 0.441 | 2.16 | –
[2], 318.31 K, x1 = 0.5071 | 2.03 | –
[2], 318.32 K, x1 = 0.5961 | 1.76 | –
[2], 318.33 K, x1 = 0.6778 | 1.42 | –
[2], 318.34 K, x1 = 0.7866 | 0.988 | –
[2], 318.35 K, x1 = 0.9058 | 0.428 | –

CCCCCO [pentan-1-ol]
Conditions | mass density [kg/m3]
[3] | 796.1

[4]
Conditions | refractive index
298.15 K | 1.4078
318.15 K | 1.4003
